Test results reported in ChEMBL document CHEMBL1153649, “Peptidyl epoxides as inhibitors of -chymotrypsin: Remarkable change from irreversible to reversible competitive inhibitor as a consequence of the improvement of binding affinity” (Bioorg Med Chem Lett, 1996).

Key:
Chymotrypsinogen B [1] = target: T1, Chymotrypsinogen B (Homo sapiens, UniProt P17538); assay: Inhibitory potency was evaluated against alpha-chymotrypsin
Chymotrypsinogen B [2] = target: T1, Chymotrypsinogen B; assay: Compound was tested for inhibitory activity against alpha-chymotrypsin

T1 sequence (P17538 34-164 limits assumed, other chains not shown): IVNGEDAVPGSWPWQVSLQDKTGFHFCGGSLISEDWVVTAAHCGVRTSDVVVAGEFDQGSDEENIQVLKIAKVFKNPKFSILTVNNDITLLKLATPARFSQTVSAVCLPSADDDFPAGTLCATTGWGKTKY
T1 sequence (P17538 167-263 limits assumed, other chains not shown): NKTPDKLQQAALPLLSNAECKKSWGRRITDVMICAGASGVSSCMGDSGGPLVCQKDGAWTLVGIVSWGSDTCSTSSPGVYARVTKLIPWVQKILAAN

Row | SMILES | K inact/Ki (Chymotrypsinogen B [1]) [M⁻¹ s⁻¹] | Ki (Chymotrypsinogen B [2]) [µM]
1 | COC(=O)[C@@H](Cc1ccccc1)[C@@H]1CO1 (single isomer, unassigned) | 27 | –
2 | O=C(N[C@@H](Cc1ccccc1)[C@@H]1CO1)C1CCCN1C(=O)c1ccccc1 (single isomer, unassigned) | – | 820
